Data taken from US20060154323A1, “Method for obtaining dynamic and structural data pertaining to proteins and protein/ligand complexes” (ProSpect Pharma, priority 2002, published 2006).
pKd: −log10 of the molar value.

Assays:
MUP [1] = target: T1, MUP (Mus musculus, UniProt P11588); experiment: Binding of small hydrophobic ligands to MUP (Kd)
T1 construct: made in house; host or cells: E. coli M15 cells with vector pqe30 MUP
T1 sequence (P11588 19-180): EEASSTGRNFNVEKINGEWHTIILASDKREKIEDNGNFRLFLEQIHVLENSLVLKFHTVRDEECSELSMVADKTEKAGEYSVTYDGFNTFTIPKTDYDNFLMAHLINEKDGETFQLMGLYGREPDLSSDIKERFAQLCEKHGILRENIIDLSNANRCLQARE

Mouse Urinary Protein = target: T2, Mouse Urinary Protein (Mus musculus, UniProt P11588); experiment: 13C NMR relaxation (T1, T2) of valine 13CHD2-labeled MUP in absence and presence of ligand; settings: for T1, Change / T2, Change: Protein vs Bound Protein; for T1, Bound Protein / T2, Bound Protein: 298 K;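 on T1, Bound Protein: unit milliseconds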;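 on T2, Bound Protein: unit milliseconds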
T2 construct: made in house; host or cells: E. coli M15 cells with vector pqe30 MUP
T2 sequence (P11588 19-180): T1 sequence (P11588 19-180)
Method: A 15 mg sample of L-valine-α-D-^12CD(^13CHD2)2 labeled MUP was dissolved in 650 μL phosphate buffered saline (10 mM potassium phosphate; 200 mM sodium chloride), to which was added 50 μL deuterium oxide. ^13C Relaxation rates (R2 and R1) of ^13CHD2 groups were determined using pulse sequences as described in Ishima et al., J. Am. Chem. Soc. 121:11589-11590 (1999). Spectral parameters were as follows: spectral width in the ^13C dimension, 900 Hz; spectral width in the ^1H dimension, 5200 Hz; number of real data points in the ^13C dimension, 128; number of real points in the ^1H dimension, 1408; number of transients per t1 increment, 8; probe temperature, 298 K. Prior to two-dimensional Fourier transformation, free induction decays were apodized with cosine-bell windowing functions according to known methods.
The NMR analysis was then repeated following addition of the small molecule ligand 1 μL of isobutyl pyrazine or 1 μL of isopropyl pyrazine to separate solutions of MUP. The data shown below in Tables I and II and in FIG. 8 were obtained, clearly showing the changes in T1 and T2 values obtained on addition of these small molecule ligands.

Major Urinary Protein = target: T3, Major Urinary Protein (Mus musculus, UniProt P11588); experiment: S2axis order parameters of valine methyl groups from 600 MHz 13C R1/R2 relaxation of valine-enriched MUP and its complexes; settings: for S^2axis: MUP-ligand complex, 600 MHz, 30° C., pH 7.0
T3 construct: made in house; host or cells: E. coli M15 cells with vector pqe30 MUP
T3 sequence (P11588 19-180): T1 sequence (P11588 19-180)
Method: Samples of [^13C^γ1,^γ2HD2]-U-^2H valine enriched MUP both alone and complexed with 2-methoxy-3-isopropylpyrazine and 2-methoxy-3-isobutylpyrazine were prepared from a single sample at pH 7.0 and a protein concentration of 1 mM. A further sample of methyl-^13C, ^2H enriched MUP was prepared at pH 7.0 and a protein concentration of 0.5 mM. Longitudinal (R1) and transverse (R2) ^13C relaxation rates were determined essentially as described by Ishima et al., J. Am. Chem. Soc. 121:11589-11590, 1999. All spectra were recorded at a proton frequency of 600 MHz and a probe temperature of 30° C. R1 rates were determined with relaxation delay times of 16, 64, 128, 240, 400, 720, 1120, 1600, 2240 and 2880 milliseconds. R2 rates were determined with relaxation delay times of 16, 32, 48, 64, 96, 160, 192, 240 and 288 milliseconds, and an effective field strength of 2 kHz. Relaxation data were fit to a single exponential decay function I=I0exp(−tR), where I0 is the initial resonance intensity, t is the relaxation delay time and R is the relaxation rate (R1 or R2). Relaxation data were fitted to the Lipari-Szabo model-free spectral density of the form: J(ω)=S^2τm/(1+ω^2τ^2m)+(1−S^2)τi/(1+ω^2τi^2), where τi^−1=τM^−1+τe^−1, τM is the overall molecular tumbling correlation time and τe is the effective internal correlation time. See Lipari and Szabo, J. Am. Chem. Soc. 104:4546-4559, 1982. This equation is valid for fast internal motions, τe<<τM, under which conditions the order parameter for methyl CH dipolar relaxation is given by S^2=Saxis^2[P2(cos θH]^2. Saxis^2 is the order parameter of the methyl rotation axis and θH is the angle made by the axis and the CH bond vector. A global rotational correlation time of […] was used for these calculations, according to the previously reported value. Zidek et al., Nature Str. Biol. 6:1118-1121, 1999. Although the valine residues were perdeuterated at non-methyl positions, the protein was otherwise protonated, and dipolar relaxation due to these “external” protons is not negligible for ^13C relaxation. Thus, by analogy with the work of Ishima et al. J. Am. Chem. Soc. 123:6164-6171, 2001, the contribution of these external protons to ^13C R2 values was estimated at 25% from the X-ray coordinates of MUP. Consequently, measured ^13C R^2 rates were multiplied by 0.75 to account for these external dipolar relaxation processes.

MUP [2] = target: T1, MUP; experiment: 13C-1H HSQC spectra of valine-enriched MUP complexes; settings: 13C-1H HSQC of complexes with valine-enriched MUP
[3] = valine methyl 59.HG1 (first line)
[4] = valine methyl 59.HG1 (second line)

COc1nccnc1CC(C)C [2-methoxy-3-isobutylpyrazine]
pKd (MUP [1]): 7.10
T1, Change (Mouse Urinary Protein; 12.HG1): 35.219 milliseconds
T2, Change (Mouse Urinary Protein; 12.HG1): −13.500 milliseconds
T2, Change (Mouse Urinary Protein; 12.HG2): −16.796 milliseconds
T1, Change (Mouse Urinary Protein; 47.HG1): 9.550 milliseconds
T2, Change (Mouse Urinary Protein; 47.HG1): −16.055 milliseconds
T1, Change (Mouse Urinary Protein; 47.HG2): −82.069 milliseconds
T2, Change (Mouse Urinary Protein; 47.HG2): −12.196 milliseconds
T1, Change (Mouse Urinary Protein; 53.HG1): −98.976 milliseconds
T2, Change (Mouse Urinary Protein; 53.HG1): −10.901 milliseconds
T1, Change (Mouse Urinary Protein; 53.HG2): 17.840 milliseconds
T2, Change (Mouse Urinary Protein; 53.HG2): −13.096 milliseconds
T1, Change (Mouse Urinary Protein; 59.HG1 (first line)): −84.312 milliseconds
T2, Change (Mouse Urinary Protein; 59.HG1 (first line)): −22.344 milliseconds
T1, Change (Mouse Urinary Protein; 59.HG1 (second line)): 20.312 milliseconds
T2, Change (Mouse Urinary Protein; 59.HG1 (second line)): −3.040 milliseconds
T1, Change (Mouse Urinary Protein; 70.HG1): 379.619 milliseconds
T2, Change (Mouse Urinary Protein; 70.HG1): −65.766 milliseconds
T1, Change (Mouse Urinary Protein; 70.HG2): −324.602 milliseconds
T2, Change (Mouse Urinary Protein; 70.HG2): 33.869 milliseconds
T1, Change (Mouse Urinary Protein; 82.HG1): 1.260 milliseconds
T2, Change (Mouse Urinary Protein; 82.HG1): 7.645 milliseconds
T1, Change (Mouse Urinary Protein; 82.HG2): −33.349 milliseconds
T2, Change (Mouse Urinary Protein; 82.HG2): 22.399 milliseconds
contribution of valine side-chains to the entropy of binding (Mouse Urinary Protein; from relaxation data in the presence of ligand): do not contribute significantly
T1, Bound Protein (Mouse Urinary Protein; valine methyl 12.HG1): 1760.141 milliseconds
T2, Bound Protein (Mouse Urinary Protein; valine methyl 12.HG1): 166.608 milliseconds
T2, Bound Protein (Mouse Urinary Protein; valine methyl 12.HG2): 200.110 milliseconds
T1, Bound Protein (Mouse Urinary Protein; valine methyl 47.HG1): 1619.169 milliseconds
T2, Bound Protein (Mouse Urinary Protein; valine methyl 47.HG1): 171.287 milliseconds
T1, Bound Protein (Mouse Urinary Protein; valine methyl 47.HG2): 1072.690 milliseconds
T2, Bound Protein (Mouse Urinary Protein; valine methyl 47.HG2): 162.950 milliseconds
T1, Bound Protein (Mouse Urinary Protein; valine methyl 53.HG1): 2332.247 milliseconds
T2, Bound Protein (Mouse Urinary Protein; valine methyl 53.HG1): 174.600 milliseconds
T1, Bound Protein (Mouse Urinary Protein; valine methyl 53.HG2): 1382.566 milliseconds
T2, Bound Protein (Mouse Urinary Protein; valine methyl 53.HG2): 163.379 milliseconds
T1, Bound Protein (Mouse Urinary Protein; [3]): 1367.075 milliseconds
T2, Bound Protein (Mouse Urinary Protein; [3]): 200.992 milliseconds
T1, Bound Protein (Mouse Urinary Protein; [4]): 1502.825 milliseconds
T2, Bound Protein (Mouse Urinary Protein; [4]): 150.756 milliseconds
T1, Bound Protein (Mouse Urinary Protein; valine methyl 70.HG1): 1701.953 milliseconds
T2, Bound Protein (Mouse Urinary Protein; valine methyl 70.HG1): 186.968 milliseconds
T1, Bound Protein (Mouse Urinary Protein; valine methyl 70.HG2): 1488.130 milliseconds
T2, Bound Protein (Mouse Urinary Protein; valine methyl 70.HG2): 128.164 milliseconds
T1, Bound Protein (Mouse Urinary Protein; valine methyl 82.HG1): 913.641 milliseconds
T2, Bound Protein (Mouse Urinary Protein; valine methyl 82.HG1): 216.738 milliseconds
T1, Bound Protein (Mouse Urinary Protein; valine methyl 82.HG2): 703.150 milliseconds
T2, Bound Protein (Mouse Urinary Protein; valine methyl 82.HG2): 201.054 milliseconds
changes in Saxis^2 of the six valine residues in MUP upon binding (Major Urinary Protein): only minor changes
S^2axis (Major Urinary Protein; Val-12 C^γ1): 0.86
S^2axis (Major Urinary Protein; Val-12 C^γ2): 0.66
S^2axis (Major Urinary Protein; Val-47 C^γ1): 0.86
S^2axis (Major Urinary Protein; Val-47 C^γ2): 0.88
S^2axis (Major Urinary Protein; Val-53 C^γ1): 0.78
S^2axis (Major Urinary Protein; Val-53 C^γ2): 0.86
S^2axis (Major Urinary Protein; Val-59 C^γ1): 0.63
S^2axis (Major Urinary Protein; Val-59 C^γ2): 0.90
S^2axis (Major Urinary Protein; Val-70 C^γ1): 0.81
S^2axis (Major Urinary Protein; Val-70 C^γ2): [1.03]
S^2axis (Major Urinary Protein; Val-82 C^γ1): 0.53
S^2axis (Major Urinary Protein; Val-82 C^γ2): 0.53
contribution of valine side-chains to the entropy of binding (Major Urinary Protein; from computations of Saxis^2 values, free protein and complexes): do not contribute significantly
shift perturbations of Val 82 γ1 and γ2 correlations (MUP [2]): Significant shift perturbations
